According to patent US11801228B2, “Modified guanidine-containing polymers for biologic delivery” (THE FLORIDA INTERNATIONAL UNIVERSITY BOARD OF TRUSTEES, priority 2022, dated 2023):

System: HeLa cells
Assay: Functional protein delivery (MTT with PN/enzyme complexes)
Format: cell-based
Conditions: no carrier
Procedure: Final concentrations of 40, 20, 10, and 5 μM were added into the complete media by dilution of the polymer stock solutions. After addition of the samples, cells were incubated for 18 h prior to treatment with 10 μL of methylthiazole tetrazolium (MTT) (5 mg/mL in PBS) and incubated for 4 h at 37° C. After incubation, 200 μL of medium was gently removed and 100 μL of biological grade DMSO was added to solubilize the purple formazan crystals. Absorbance was measured by microwell plate reader. Cell viability was determined as a function of absorbance of each sample relative to control wells. All measurements represent the average of three independent measurements+/−standard deviation.
MTT assay was performed with PN/enzyme complexes are described previously. In short, serial dilutions of saporin or RNase were prepared and complexes with various PNs. For serum-containing media, complexes were added to HeLa cells and incubated overnight prior to MTT treatment. For serum-free experiments, complexes were added in DMEM for 4 h and the media was replaced with complete media overnight prior to MTT treatment.

Molecule | toxicity of free enzyme on HeLa cells
Saporin | no toxicity
RNase A: 13.7 kDa enzyme capable of degrading RNA chains (protein, UniProt P61823 27-150, looked up) Ribonuclease pancreatic: KETAAAKFERQHMDSSTSAASSSNYCNQMMKSRNLTKDRCKPVNTFVHESLADVQAVCSQKNVACKNGQTNCYQSYSTMSITDCRETGSSKYPNCAYKTTQANKHIIVACEGNPYVPVHFDASV | no toxicity
